The results in this text go back to ChEMBL document CHEMBL1201862, “PubChem BioAssay data set” (2004).

SMILES strings stand for the structures.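 The compound was tested at five concentrations on cells cultured in 96-well plates, with a 48-hour exposure period. At the GI50, growth is halved.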 The source made the active and inactive calls. No stated cut-off is given here; in the data, active = GI50 up to about 1.1 µM and inactive = higher.

Some test systems named below: HOP-92; Hs-578T; HCT-15; KM12; A549; SK-MEL-5; M14; SF-295; BT-549; K562; RXF 393; COLO 205; NCI-H460; HT-29; LOX IMVI; HOP-62; T47D; UACC-62; SK-OV-3; SW-620.
Common to all, as to experiment: NCI tumour cell line growth inhibition, 48 h

Regarding `Cn1c(=O)c2nc(CSCc3ccccc3)[nH]c2n(C)c1=O`, the GI50 in the assay with HOP-92 is > 100 µM (inactive); in the assay with Hs-578T it was > 100 µM (inactive); in the assay with HCT-15, more than 100 µM; in the assay on KM12 it was > 100 µM (inactive); in the assay on A549, 45.6 µM (inactive); in the assay with SK-MEL-5 it was 71.6 µM (inactive). In addition, the GI50 with M14 is > 100 µM (inactive); with SF-295, 85.7 µM (inactive); with BT-549, > 100 µM (inactive); with K562, 78 µM (inactive); in the assay on RXF 393 it was > 100 µM (inactive); with COLO 205, > 100 µM (inactive). For the same compound, the GI50 was > 100 µM (inactive) with NCI-H460; 71.4 µM (inactive) with HT-29; > 100 µM (inactive) in the assay on LOX IMVI; > 100 µM (inactive) with HOP-62; > 100 µM (inactive) in the assay with T47D; > 100 µM (inactive) in the assay on UACC-62. Besides, the GI50 in the assay with SK-OV-3 was > 100 µM (inactive).

Regarding `CN(C)CCn1c(=O)c2ccc(NCCCN(C)CCCNc3ccc4c(=O)n(CCN(C)C)c(=O)n5c6ccc(O)cc6c(=O)c3c45)c3c(=O)c4cc(O)ccc4n(c1=O)c23`, the GI50 with HOP-92 was < 0.0201 µM (active); in the assay with Hs-578T, 0.0234 µM (active); with SW-620, < 0.01 µM (active); with HCT-15 it was less than 0.0173 µM; in the assay with KM12, < 0.01 µM (active); with A549, < 0.01 µM (active). Besides, the GI50 with SK-MEL-5 is < 0.01 µM (active); with M14, 0.147 µM (active); in the assay on SF-295, < 0.01 µM (active); with BT-549, 0.0692 µM (active); in the assay with K562, < 0.01 µM (active); with RXF 393, < 0.0125 µM (active). Further, the GI50 is < 0.01 µM (active) in the assay with COLO 205; < 0.01 µM (active) in the assay with NCI-H460; < 0.01 µM (active) in the assay with HT-29; < 0.01 µM (active) in the assay on LOX IMVI; < 0.032 µM (active) in the assay with HOP-62; 0.0624 µM (active) with T47D. Further, in the assay on UACC-62, the GI50 was < 0.0116 µM (active).

On to `C=CCC1(O)c2cccc(O)c2C(=O)c2c(O)cccc21`, for which the GI50 in the assay on HOP-92 was 28.1 µM (inactive); with Hs-578T, 24.4 µM (inactive); in the assay on SW-620 it was 31.6 µM (inactive); with HCT-15 it was 17.7 µM; with KM12 it was 24.4 µM (inactive); in the assay on A549, 24 µM (inactive). Also, the GI50 with SK-MEL-5 is 29.4 µM (inactive); in the assay on M14 it was 20.8 µM (inactive); with SF-295, 27.1 µM (inactive); in the assay on BT-549 it was 29.6 µM (inactive); in the assay with K562 it was 21 µM (inactive); with RXF 393 it was 15.9 µM (inactive). The GI50 in the assay on NCI-H460 is 31.8 µM (inactive); in the assay with HT-29, 22.6 µM (inactive); in the assay with LOX IMVI it was 20.9 µM (inactive); with HOP-62 it was 80.2 µM (inactive); in the assay on T47D it was 23.3 µM (inactive).

Consider `O=CN1CCN(C(=O)c2cc(Cl)cc(Cl)c2)C1=S`, for which the GI50 is 17.9 µM (inactive) with HOP-92; 21 µM (inactive) in the assay on Hs-578T; 19 µM (inactive) in the assay on SW-620; 17 µM with HCT-15; 14.4 µM (inactive) in the assay on KM12; 20.8 µM (inactive) with A549. Also, the GI50 in the assay with M14 was 15.6 µM (inactive); with SF-295 it was 17.7 µM (inactive); with BT-549, 17.3 µM (inactive); in the assay with K562, 14.8 µM (inactive); in the assay on RXF 393 it was 16 µM (inactive); with COLO 205 it was 17.1 µM (inactive). Also, the GI50 in the assay on NCI-H460 is 22.5 µM (inactive); in the assay on HT-29 it was 24.3 µM (inactive); with LOX IMVI, 7.13 µM (inactive); in the assay on HOP-62, 15.2 µM (inactive); in the assay on T47D, 10.7 µM (inactive); in the assay with UACC-62, 15.8 µM (inactive). The GI50 with SK-OV-3 is 17.5 µM (inactive).

As for `CC(=O)N1N=C(c2ccc3ccccc3c2O)CC1c1ccc(N(C)C)cc1` (stereo not given), the GI50 in the assay on HOP-92 was > 100 µM (inactive); in the assay on Hs-578T, > 100 µM (inactive); with SW-620 it was > 100 µM (inactive); in the assay on HCT-15 it was more than 100 µM; in the assay on KM12, > 100 µM (inactive); in the assay on A549 it was > 100 µM (inactive). In addition, the GI50 with SK-MEL-5, in the assay with M14, in the assay on SF-295, with BT-549, in the assay with K562 and with RXF 393 was > 100 µM (inactive) each time. Moreover, the GI50 in the assay on COLO 205, in the assay with NCI-H460, in the assay on HT-29, with HOP-62, in the assay with T47D and in the assay on UACC-62 was > 100 µM (inactive) each time. Besides, in the assay with SK-OV-3, the GI50 is > 100 µM (inactive).

Take `Cc1cn(CCCCOC(=O)NC(CCCNC(=N)N)C(=O)O)c(=O)[nH]c1=O` (stereo not given): the GI50 in the assay with HOP-92 was > 100 µM (inactive); with Hs-578T it was > 100 µM (inactive); in the assay on SW-620 it was > 100 µM (inactive); in the assay with HCT-15 it was more than 100 µM; with KM12, > 100 µM (inactive); in the assay with A549, > 100 µM (inactive). The GI50 in the assay with M14, in the assay on SF-295, with BT-549, in the assay with K562, in the assay with RXF 393 and with COLO 205 was > 100 µM (inactive) each time. In addition, the GI50 in the assay with NCI-H460, in the assay with HT-29, with LOX IMVI, in the assay with HOP-62, in the assay with T47D and in the assay with UACC-62 was > 100 µM (inactive) in each case. Moreover, the GI50 in the assay on SK-OV-3 is > 100 µM (inactive).

For `CC(=O)O[C@H]1C(=O)[C@@]2(C)[C@H]([C@H](OC(=O)c3ccccc3)[C@]3(O)C[C@H](OC(=O)[C@H](O)[C@@H](NC(=O)c4ccccc4)c4cccc(N(C)C)c4)C(C)=C1C3(C)C)[C@]1(OC(C)=O)CO[C@@H]1C[C@@H]2O`, the GI50 with HOP-92 is 0.555 µM (active); with Hs-578T it was 0.0276 µM (active); with SW-620 it was 0.0409 µM (active); with HCT-15, 1.79 µM; with KM12, 0.0198 µM (active); in the assay with A549, 0.314 µM (active). Moreover, the GI50 is 0.0417 µM (active) in the assay on SK-MEL-5; 0.098 µM (active) with M14; 0.142 µM (active) in the assay with SF-295; 0.165 µM (active) in the assay on BT-549; 0.0324 µM (active) with K562; 0.221 µM (active) with RXF 393. In addition, the GI50 in the assay with COLO 205 was 0.0432 µM (active); in the assay on NCI-H460, 0.0419 µM (active); with HT-29, 0.0219 µM (active); in the assay on LOX IMVI, 0.036 µM (active); in the assay on HOP-62, 0.256 µM (active); in the assay on T47D, 0.401 µM (active). Besides, the GI50 in the assay on UACC-62 is 0.254 µM (active); in the assay on SK-OV-3, 0.105 µM (active).

With `CC1(C)OCC(C2OC(=O)C(OCc3ccccc3)=C2OCc2ccccc2)O1` (stereo not given), the GI50 in the assay with HOP-92 is 23 µM (inactive); in the assay on Hs-578T, 70.6 µM (inactive); with SW-620, 51.8 µM (inactive); with HCT-15, 30.9 µM; in the assay on KM12, 32 µM (inactive); with A549, 32.9 µM (inactive). Further, the GI50 with SK-MEL-5 is 17.2 µM (inactive); with M14, 45.5 µM (inactive); with SF-295, 34 µM (inactive); in the assay with BT-549, 35 µM (inactive); with K562 it was 27.4 µM (inactive); in the assay on RXF 393, 49.1 µM (inactive). In addition, the GI50 in the assay on COLO 205 was 22.2 µM (inactive); with NCI-H460 it was 41 µM (inactive); in the assay with HT-29, 51.4 µM (inactive); in the assay with LOX IMVI, 31.2 µM (inactive); in the assay on HOP-62 it was 81.8 µM (inactive); in the assay with T47D, 28.8 µM (inactive). The GI50 in the assay with UACC-62 is 22.4 µM (inactive); with SK-OV-3, 52.6 µM (inactive).

As for `C=CC[C@H](C)CCC(=O)N1[C@H]2CC3CC[C@@]2(CS1(=O)=O)C3(C)C`, the GI50 in the assay with HOP-92 is > 100 µM (inactive); in the assay with Hs-578T it was 30.6 µM (inactive); in the assay on SW-620, 79.8 µM (inactive); in the assay with HCT-15, 25.5 µM; with KM12, 39.3 µM (inactive); in the assay on A549, 39.8 µM (inactive). In addition, the GI50 was 21.5 µM (inactive) in the assay on SK-MEL-5; 35.6 µM (inactive) with M14; 45.2 µM (inactive) in the assay on SF-295; 78.7 µM (inactive) with BT-549; 49 µM (inactive) with RXF 393; 34.3 µM (inactive) in the assay on COLO 205. In addition, the GI50 in the assay on NCI-H460 is 30.5 µM (inactive); in the assay on HT-29, 18.8 µM (inactive); with LOX IMVI, 30.8 µM (inactive); in the assay on HOP-62, > 100 µM (inactive); with T47D, 42.6 µM (inactive); in the assay with UACC-62, > 100 µM (inactive). In addition, the GI50 with SK-OV-3 is > 100 µM (inactive).

As to `COc1ccc(OC)c(-c2cc(=O)c3c(OC)c(OC)c(OC)c(OC)c3o2)c1`, the GI50 was 11.7 µM (inactive) with HOP-92; 37.6 µM (inactive) in the assay with Hs-578T; 33 µM (inactive) in the assay with SW-620; 21.3 µM in the assay with HCT-15; 28.5 µM (inactive) in the assay with A549; 12.4 µM (inactive) with SK-MEL-5. Moreover, the GI50 in the assay with M14 was 36.1 µM (inactive); with SF-295, 18.7 µM (inactive); with BT-549 it was 33.2 µM (inactive); in the assay on K562, 22.2 µM (inactive); with RXF 393, 22 µM (inactive); with COLO 205, 17.1 µM (inactive). Besides, the GI50 in the assay on NCI-H460 was 25.4 µM (inactive); in the assay with HT-29, 33.6 µM (inactive); in the assay with LOX IMVI, 25.6 µM (inactive); in the assay on HOP-62 it was 27.6 µM (inactive); in the assay with T47D, 2.13 µM (inactive); in the assay with UACC-62, 24.3 µM (inactive). For the same compound, in the assay with SK-OV-3, the GI50 is 22.8 µM (inactive).
